From the kinase profiling compilation of Christmann-Franck et al. (2016)
Values joined by “and” are separate entries in the source; they are usually repeats but may differ in a detail not shown here. Identical values can stand only once.

Key:
Assay in all cases: KINOMEscan competition binding
Details in all cases: compound 10.0 µM
[1] = system: ABL1 (human), P00519 [E255K]
[2] = system: ABL1 (human), P00519 [H396P]
[3] = molecular target: ACVR1B (human) (UniProt P36896)
[4] = molecular target: AKT3 (human) (UniProt Q9Y243)
[5] = molecular target: AURKA (human) (UniProt O14965)
[6] = molecular target: AXL (human) (UniProt P30530)
[7] = molecular target: BMPR2 (human) (UniProt Q13873)
Chain of BMPR2 (human) (Q13873 whole entry, looked up): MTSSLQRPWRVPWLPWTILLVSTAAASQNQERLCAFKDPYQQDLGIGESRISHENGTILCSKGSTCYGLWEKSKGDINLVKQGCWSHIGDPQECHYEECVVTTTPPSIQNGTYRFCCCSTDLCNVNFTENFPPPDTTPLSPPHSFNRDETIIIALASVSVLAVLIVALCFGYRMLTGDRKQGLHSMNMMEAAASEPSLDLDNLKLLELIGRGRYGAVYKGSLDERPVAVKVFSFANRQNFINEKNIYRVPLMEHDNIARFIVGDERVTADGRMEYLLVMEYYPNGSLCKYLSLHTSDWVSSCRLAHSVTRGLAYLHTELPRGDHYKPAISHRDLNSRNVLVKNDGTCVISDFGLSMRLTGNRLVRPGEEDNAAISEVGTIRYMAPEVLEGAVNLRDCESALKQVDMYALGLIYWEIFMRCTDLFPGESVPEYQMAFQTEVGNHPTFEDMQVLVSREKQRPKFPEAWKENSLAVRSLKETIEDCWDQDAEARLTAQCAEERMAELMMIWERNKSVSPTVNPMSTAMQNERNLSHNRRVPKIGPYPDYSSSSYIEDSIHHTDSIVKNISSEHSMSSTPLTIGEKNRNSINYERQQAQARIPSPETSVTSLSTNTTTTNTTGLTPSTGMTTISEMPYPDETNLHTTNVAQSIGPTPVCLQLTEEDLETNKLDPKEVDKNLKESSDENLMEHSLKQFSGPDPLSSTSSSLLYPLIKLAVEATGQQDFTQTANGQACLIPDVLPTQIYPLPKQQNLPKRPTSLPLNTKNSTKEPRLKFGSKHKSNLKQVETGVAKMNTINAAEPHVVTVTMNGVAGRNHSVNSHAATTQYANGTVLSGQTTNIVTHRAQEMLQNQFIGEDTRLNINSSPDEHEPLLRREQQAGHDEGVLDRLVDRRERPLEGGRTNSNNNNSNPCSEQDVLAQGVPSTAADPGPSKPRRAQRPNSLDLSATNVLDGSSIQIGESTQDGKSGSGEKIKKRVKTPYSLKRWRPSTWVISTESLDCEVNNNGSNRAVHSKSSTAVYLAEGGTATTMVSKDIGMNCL

[8] = molecular target: CAMK2G (human) (UniProt Q13555)
[9] = molecular target: CAMK4 (human) (UniProt Q16566)
[10] = molecular target: CDK11B (human) (UniProt P21127)
[11] = molecular target: CDK18 (human) (UniProt Q07002)
[12] = molecular target: CDK3 (human) (UniProt Q00526)
[13] = molecular target: CDK9 (human) (UniProt P50750)
[14] = molecular target: CSNK1A1L (human) (UniProt Q8N752)
Chain of CSNK1A1L (human) (Q8N752 whole entry, looked up): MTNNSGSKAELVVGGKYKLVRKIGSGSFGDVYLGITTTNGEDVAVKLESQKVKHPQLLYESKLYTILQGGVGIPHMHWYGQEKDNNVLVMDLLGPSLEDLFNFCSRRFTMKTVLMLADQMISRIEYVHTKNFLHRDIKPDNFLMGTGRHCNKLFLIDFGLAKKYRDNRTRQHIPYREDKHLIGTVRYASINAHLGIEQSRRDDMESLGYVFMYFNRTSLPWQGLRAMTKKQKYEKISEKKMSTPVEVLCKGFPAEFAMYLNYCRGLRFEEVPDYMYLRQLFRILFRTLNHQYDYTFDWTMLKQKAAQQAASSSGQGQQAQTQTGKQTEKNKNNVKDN

[15] = molecular target: DCLK2 (human) (UniProt Q8N568)
[16] = molecular target: DDR2 (human) (UniProt Q16832)
Chain of DDR2 (human) (Q16832 whole entry, looked up): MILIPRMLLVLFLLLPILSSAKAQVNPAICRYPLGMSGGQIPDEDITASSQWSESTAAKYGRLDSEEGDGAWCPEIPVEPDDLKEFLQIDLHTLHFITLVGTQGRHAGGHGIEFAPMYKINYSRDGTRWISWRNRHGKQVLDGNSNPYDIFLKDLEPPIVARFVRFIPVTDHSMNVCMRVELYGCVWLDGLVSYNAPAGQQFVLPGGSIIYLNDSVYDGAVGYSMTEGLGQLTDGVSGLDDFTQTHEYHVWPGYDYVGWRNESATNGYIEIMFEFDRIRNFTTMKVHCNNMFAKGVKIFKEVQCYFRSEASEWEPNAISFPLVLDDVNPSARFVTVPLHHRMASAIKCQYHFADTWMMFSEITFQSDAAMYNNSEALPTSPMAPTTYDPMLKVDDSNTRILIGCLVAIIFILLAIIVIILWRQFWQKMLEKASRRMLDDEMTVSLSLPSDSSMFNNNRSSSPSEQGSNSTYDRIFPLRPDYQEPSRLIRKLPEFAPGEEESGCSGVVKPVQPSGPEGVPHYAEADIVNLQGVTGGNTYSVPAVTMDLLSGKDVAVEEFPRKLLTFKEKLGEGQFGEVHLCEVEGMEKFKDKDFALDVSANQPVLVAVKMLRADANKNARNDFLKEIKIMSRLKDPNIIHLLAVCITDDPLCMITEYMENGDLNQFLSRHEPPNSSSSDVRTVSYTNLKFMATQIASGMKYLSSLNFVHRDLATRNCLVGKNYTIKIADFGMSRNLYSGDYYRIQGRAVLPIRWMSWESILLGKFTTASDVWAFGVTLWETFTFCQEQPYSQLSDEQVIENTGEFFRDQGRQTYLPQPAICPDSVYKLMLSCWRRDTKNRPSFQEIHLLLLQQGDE

[17] = molecular target: EGFR (human) (UniProt P00533)
[18] = system: EGFR (human), P00533 [A750P; 747-749 del]
[19] = system: EGFR (human), P00533 [G719C; 746-750 del]
[20] = system: EGFR (human), P00533 [L858R]
[21] = molecular target: EPHA7 (human) (UniProt Q15375)
[22] = molecular target: FGR (human) (UniProt P09769)
[23] = molecular target: IKBKB (human) (UniProt O14920)
[24] = molecular target: ITK (human) (UniProt Q08881)
Chain of ITK (human) (Q08881 whole entry, looked up): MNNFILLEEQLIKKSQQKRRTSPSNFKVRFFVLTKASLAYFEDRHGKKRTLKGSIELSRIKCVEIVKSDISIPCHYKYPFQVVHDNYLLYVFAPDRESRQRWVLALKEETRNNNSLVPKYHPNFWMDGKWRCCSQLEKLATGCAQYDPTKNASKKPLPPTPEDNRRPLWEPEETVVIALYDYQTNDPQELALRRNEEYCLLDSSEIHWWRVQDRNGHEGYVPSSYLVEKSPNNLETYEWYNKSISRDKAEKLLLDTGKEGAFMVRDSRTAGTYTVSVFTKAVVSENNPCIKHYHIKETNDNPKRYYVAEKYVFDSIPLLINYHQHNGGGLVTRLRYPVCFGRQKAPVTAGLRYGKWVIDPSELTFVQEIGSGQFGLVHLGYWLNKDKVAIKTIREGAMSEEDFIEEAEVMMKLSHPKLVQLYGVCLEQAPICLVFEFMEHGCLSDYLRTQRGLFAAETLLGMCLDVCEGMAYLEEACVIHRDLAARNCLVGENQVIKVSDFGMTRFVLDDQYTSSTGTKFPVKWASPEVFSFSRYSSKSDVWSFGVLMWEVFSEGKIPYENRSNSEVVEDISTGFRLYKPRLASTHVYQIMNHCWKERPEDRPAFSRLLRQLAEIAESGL

[25] = molecular target: MAP2K2 (human) (UniProt P36507)
[26] = molecular target: MAP3K9 (human) (UniProt P80192)
[27] = molecular target: MAPK13 (human) (UniProt O15264)
[28] = molecular target: MAPK6 (human) (UniProt Q16659)
[29] = molecular target: MAPKAPK2 (human) (UniProt P49137)
[30] = molecular target: MARK4 (human) (UniProt Q96L34)
[31] = molecular target: MST1R (human) (UniProt Q04912)
[32] = molecular target: NEK7 (human) (UniProt Q8TDX7)
[33] = molecular target: NTRK1 (human) (UniProt P04629)
[34] = molecular target: NTRK2 (human) (UniProt Q16620)
[35] = molecular target: PAK2 (human) (UniProt Q13177)
[36] = molecular target: PIK3C2B (human) (UniProt O00750)
[37] = molecular target: PKN2 (human) (UniProt Q16513)
Chain of PKN2 (human) (Q16513 whole entry, looked up): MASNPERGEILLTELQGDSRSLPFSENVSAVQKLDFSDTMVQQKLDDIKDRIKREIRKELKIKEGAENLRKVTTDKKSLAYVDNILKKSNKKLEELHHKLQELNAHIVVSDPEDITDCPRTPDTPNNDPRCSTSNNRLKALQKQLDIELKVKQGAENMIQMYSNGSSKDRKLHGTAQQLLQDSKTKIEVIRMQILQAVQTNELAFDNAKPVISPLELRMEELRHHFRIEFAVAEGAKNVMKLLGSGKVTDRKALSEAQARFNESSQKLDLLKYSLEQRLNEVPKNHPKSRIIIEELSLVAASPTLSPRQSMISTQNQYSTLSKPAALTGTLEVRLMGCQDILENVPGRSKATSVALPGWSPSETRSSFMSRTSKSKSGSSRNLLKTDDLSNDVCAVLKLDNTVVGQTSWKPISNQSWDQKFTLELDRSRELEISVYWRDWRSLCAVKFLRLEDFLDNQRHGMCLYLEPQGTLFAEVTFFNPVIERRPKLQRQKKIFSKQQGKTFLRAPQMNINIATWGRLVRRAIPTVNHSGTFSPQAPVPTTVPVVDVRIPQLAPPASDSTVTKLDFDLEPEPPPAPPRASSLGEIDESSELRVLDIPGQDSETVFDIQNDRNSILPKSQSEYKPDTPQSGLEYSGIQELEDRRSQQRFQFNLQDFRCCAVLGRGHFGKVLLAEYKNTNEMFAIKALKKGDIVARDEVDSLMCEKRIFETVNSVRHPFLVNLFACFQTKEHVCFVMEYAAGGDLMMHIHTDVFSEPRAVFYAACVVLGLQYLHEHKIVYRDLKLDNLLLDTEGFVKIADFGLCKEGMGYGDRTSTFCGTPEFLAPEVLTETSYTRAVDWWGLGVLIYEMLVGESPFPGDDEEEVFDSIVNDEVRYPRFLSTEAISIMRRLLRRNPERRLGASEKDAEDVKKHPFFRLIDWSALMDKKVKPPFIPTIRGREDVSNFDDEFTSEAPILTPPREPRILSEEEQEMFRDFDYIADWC

[38] = molecular target: PRKG2 (human) (UniProt Q13237)
[39] = system: RET (human), P07949 [V804M]
[40] = molecular target: ROS1 (human) (UniProt P08922)
[41] = molecular target: TEC (human) (UniProt P42680)
Chain of TEC (human) (P42680 whole entry, looked up): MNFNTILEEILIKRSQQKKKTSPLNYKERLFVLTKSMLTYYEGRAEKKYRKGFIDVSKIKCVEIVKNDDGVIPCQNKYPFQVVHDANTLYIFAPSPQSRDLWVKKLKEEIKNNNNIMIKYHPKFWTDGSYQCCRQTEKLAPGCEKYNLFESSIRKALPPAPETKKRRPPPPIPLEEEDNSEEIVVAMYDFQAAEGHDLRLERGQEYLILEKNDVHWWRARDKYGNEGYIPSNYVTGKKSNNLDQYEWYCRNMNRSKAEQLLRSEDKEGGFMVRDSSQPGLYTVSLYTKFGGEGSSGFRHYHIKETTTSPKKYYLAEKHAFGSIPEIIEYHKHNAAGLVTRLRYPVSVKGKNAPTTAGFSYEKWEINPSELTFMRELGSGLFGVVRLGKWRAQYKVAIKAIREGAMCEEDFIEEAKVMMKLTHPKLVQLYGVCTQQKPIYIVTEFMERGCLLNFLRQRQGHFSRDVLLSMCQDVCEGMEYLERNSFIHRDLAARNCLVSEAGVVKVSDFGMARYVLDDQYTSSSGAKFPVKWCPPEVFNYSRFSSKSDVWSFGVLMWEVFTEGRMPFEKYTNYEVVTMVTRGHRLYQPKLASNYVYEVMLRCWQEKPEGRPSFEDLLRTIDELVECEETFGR

[42] = molecular target: TXK (human) (UniProt P42681)
Chain of TXK (human) (P42681 whole entry, looked up): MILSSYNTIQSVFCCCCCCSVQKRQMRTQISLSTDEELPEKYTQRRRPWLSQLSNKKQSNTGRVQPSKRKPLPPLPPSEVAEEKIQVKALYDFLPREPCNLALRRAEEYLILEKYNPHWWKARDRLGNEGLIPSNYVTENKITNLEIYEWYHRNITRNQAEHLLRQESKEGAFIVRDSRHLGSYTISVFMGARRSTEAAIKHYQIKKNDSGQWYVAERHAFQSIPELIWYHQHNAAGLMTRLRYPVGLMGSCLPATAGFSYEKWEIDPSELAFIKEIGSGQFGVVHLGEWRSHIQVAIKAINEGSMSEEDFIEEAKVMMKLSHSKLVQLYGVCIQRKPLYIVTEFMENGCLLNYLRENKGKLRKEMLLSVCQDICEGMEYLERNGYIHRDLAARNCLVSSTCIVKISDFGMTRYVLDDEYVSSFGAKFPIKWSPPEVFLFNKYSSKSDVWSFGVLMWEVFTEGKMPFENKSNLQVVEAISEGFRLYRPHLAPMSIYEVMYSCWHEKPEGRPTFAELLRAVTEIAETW

Q: `COc1cc(N2CCN(C)CC2)ccc1Nc1ncc2c(n1)N(C)c1sccc1C(=O)N2C` was tested. Which kinase still bound, per cent of control [1] did it give?
A: 85%

Q: What about the kinase still bound, per cent of control [2] of the same compound?
A: 82%

Q: And the kinase still bound, per cent of control [3]?
A: 86%

Q: And the kinase still bound, per cent of control [4]?
A: 100%

Q: What about the kinase still bound, per cent of control [5] of the same compound?
A: 75%

Q: What about the kinase still bound, per cent of control [6] of the same compound?
A: 75%

Q: And the kinase still bound, per cent of control [7]?
A: 100%

Q: What about the kinase still bound, per cent of control [8] of the same compound?
A: 57%

Q: What about the kinase still bound, per cent of control [9] of the same compound?
A: 80%

Q: What about the kinase still bound, per cent of control [10] of the same compound?
A: 85%

Q: What about the kinase still bound, per cent of control [11] of the same compound?
A: 76%

Q: What about the kinase still bound, per cent of control [12] of the same compound?
A: 100%

Q: And the kinase still bound, per cent of control [13]?
A: 76%

Q: What about the kinase still bound, per cent of control [14] of the same compound?
A: 93%

Q: And the kinase still bound, per cent of control [15]?
A: 1%

Q: What about the kinase still bound, per cent of control [16] of the same compound?
A: 91%

Q: What about the kinase still bound, per cent of control [17] of the same compound?
A: 80% and 87%

Q: And the kinase still bound, per cent of control [18]?
A: 70%

Q: And the kinase still bound, per cent of control [19]?
A: 82%

Q: And the kinase still bound, per cent of control [20]?
A: 63%

Q: What about the kinase still bound, per cent of control [21] of the same compound?
A: 92%

Q: What about the kinase still bound, per cent of control [22] of the same compound?
A: 98%

Q: What about the kinase still bound, per cent of control [23] of the same compound?
A: 65%

Q: And the kinase still bound, per cent of control [24]?
A: 81%

Q: What about the kinase still bound, per cent of control [25] of the same compound?
A: 77%

Q: And the kinase still bound, per cent of control [26]?
A: 100%

Q: What about the kinase still bound, per cent of control [27] of the same compound?
A: 71%

Q: And the kinase still bound, per cent of control [28]?
A: 61%

Q: What about the kinase still bound, per cent of control [29] of the same compound?
A: 89%

Q: And the kinase still bound, per cent of control [30]?
A: 59%

Q: And the kinase still bound, per cent of control [31]?
A: 76%

Q: And the kinase still bound, per cent of control [32]?
A: 93%

Q: What about the kinase still bound, per cent of control [33] of the same compound?
A: 60%

Q: And the kinase still bound, per cent of control [34]?
A: 83%

Q: And the kinase still bound, per cent of control [35]?
A: 71%

Q: And the kinase still bound, per cent of control [36]?
A: 85%

Q: What about the kinase still bound, per cent of control [37] of the same compound?
A: 90%

Q: What about the kinase still bound, per cent of control [38] of the same compound?
A: 84%

Q: And the kinase still bound, per cent of control [39]?
A: 88%

Q: And the kinase still bound, per cent of control [40]?
A: 100%

Q: And the kinase still bound, per cent of control [41]?
A: 91%

Q: And the kinase still bound, per cent of control [42]?
A: 72%

Q: For `CN1C(=O)c2ccccc2N(C)c2nc(Nc3ccc(N4CCC(O)CC4)cc3)ncc21`, which kinase still bound, per cent of control [1] is on record?
A: 0.6%

Q: And the kinase still bound, per cent of control [2]?
A: 0.15%

Q: What about the kinase still bound, per cent of control [3] of the same compound?
A: 91%

Q: What about the kinase still bound, per cent of control [4] of the same compound?
A: 100%

Q: And the kinase still bound, per cent of control [5]?
A: 2.4%

Q: And the kinase still bound, per cent of control [6]?
A: 88%

Q: What about the kinase still bound, per cent of control [7] of the same compound?
A: 78%

Q: And the kinase still bound, per cent of control [8]?
A: 100%

Q: And the kinase still bound, per cent of control [9]?
A: 100%

Q: What about the kinase still bound, per cent of control [10] of the same compound?
A: 100%

Q: And the kinase still bound, per cent of control [11]?
A: 100%

Q: And the kinase still bound, per cent of control [12]?
A: 100%

Q: What about the kinase still bound, per cent of control [13] of the same compound?
A: 100%

Q: What about the kinase still bound, per cent of control [14] of the same compound?
A: 98%

Q: And the kinase still bound, per cent of control [15]?
A: 0.6%

Q: And the kinase still bound, per cent of control [16]?
A: 96%

Q: And the kinase still bound, per cent of control [17]?
A: 100%

Q: And the kinase still bound, per cent of control [18]?
A: 98%

Q: What about the kinase still bound, per cent of control [19] of the same compound?
A: 100%

Q: And the kinase still bound, per cent of control [20]?
A: 93%

Q: What about the kinase still bound, per cent of control [21] of the same compound?
A: 100%

Q: What about the kinase still bound, per cent of control [22] of the same compound?
A: 6.6%

Q: What about the kinase still bound, per cent of control [23] of the same compound?
A: 86%

Q: What about the kinase still bound, per cent of control [24] of the same compound?
A: 96%

Q: And the kinase still bound, per cent of control [25]?
A: 100%

Q: And the kinase still bound, per cent of control [26]?
A: 91%

Q: And the kinase still bound, per cent of control [27]?
A: 100%

Q: What about the kinase still bound, per cent of control [28] of the same compound?
A: 97%

Q: And the kinase still bound, per cent of control [29]?
A: 100%

Q: And the kinase still bound, per cent of control [30]?
A: 66%

Q: What about the kinase still bound, per cent of control [31] of the same compound?
A: 94%

Q: And the kinase still bound, per cent of control [32]?
A: 100%

Q: What about the kinase still bound, per cent of control [33] of the same compound?
A: 64%

Q: What about the kinase still bound, per cent of control [34] of the same compound?
A: 36%

Q: And the kinase still bound, per cent of control [35]?
A: 81%

Q: What about the kinase still bound, per cent of control [36] of the same compound?
A: 89%

Q: What about the kinase still bound, per cent of control [37] of the same compound?
A: 92%

Q: And the kinase still bound, per cent of control [38]?
A: 95%

Q: And the kinase still bound, per cent of control [39]?
A: 3%

Q: What about the kinase still bound, per cent of control [40] of the same compound?
A: 35%

Q: And the kinase still bound, per cent of control [41]?
A: 100%

Q: What about the kinase still bound, per cent of control [42] of the same compound?
A: 85%
